Data taken from patent publication US20160330959A1, “FUNGICIDAL COMPOSITIONS OF PYRAZOLECARBOXYLIC ACID ALKOXYAMIDES” (BAYER CROPSCIENCE AKTIENGESELLSCHAFT, priority 2014, published 2016).

Tests used:
[1] = tested on: Septoria tritici; assay: in vivo preventive Septoria tritici test (wheat); details: preventive spray, evaluated 21 days after inoculation
Excerpt: (§1) A synergistic effect of fungicides is always present when the fungicidal activity of the active compound combinations exceeds the total of the activities of the active compounds when applied individually. The expected activity for a given combination of two active compounds can be calculated as follows (cf. Colby, S. R., “Calculating Synergistic and Antagonistic Responses of Herbicide Combinations”, Weeds 1967, 15, 20-22): • If • X is the efficacy when active compound A is applied at an application rate of m ppm (or g/ha), • Y is the efficacy when active compound B is applied at an application rate of n ppm (or g/ha), • E is the efficacy when the active compounds A and B are applied at application rates of m and n ppm (or g/ha), respectively, and • then
(§2) The degree of efficacy, expressed in % is denoted. 0% means an efficacy which corresponds to that of the control while an efficacy of 100% means that no disease is observed.
To produce a suitable preparation of active compound, 1 part by weight of active compound or active compound combination is mixed with the stated amounts of solvent and emulsifier, and the concentrate is diluted with water to the desired concentration.
To test for preventive activity, young plants are sprayed with the preparation of active compound or active compound combination at the stated rate of application.
After the spray coating has been dried, the plants are sprayed with a spore suspension of Septoria tritici. The plants remain for 48 hours in an incubation cabinet at approximately 20° C. and a relative atmospheric humidity of approximately 100% and afterwards for 60 hours at approximately 15° C. in a translucent incubation cabinet at a relative atmospheric humidity of approximately 100%.
The plants are placed in the greenhouse at a temperature of approximately 15° C. and a relative atmospheric humidity of approximately 80%.
The test is evaluated 21 days after the inoculation. 0% means an efficacy which corresponds to that of the untreated control, while an efficacy of 100% means that no disease is observed.

[2] = tested on: Alternaria solani; assay: in vivo preventive test on Alternaria test (tomatoes); details: preventive spray, evaluated 3 days after inoculation
Excerpt: as §1, §2
To produce a suitable preparation of active compound, 1 part by weight of active compound is mixed with the stated amounts of solvent and emulsifier, and the concentrate is diluted with water to the desired concentration.
To test for preventive activity, young plants are sprayed with the preparation of active compound at the stated rate of application. After the spray coating has dried on, the plants are inoculated with an aqueous spore suspension of Alternaria solani. The plants are then placed in an incubation cabinet at approximately 20° C. and a relative atmospheric humidity of 100%.
The test is evaluated 3 days after the inoculation. 0% means an efficacy which corresponds to that of the untreated control while an efficacy of 100% means that no disease is observed.

[3] = log P by HPLC on reversed phase columns (EEC directive 79/831 Annex V.A8); assay type: physicochemical; details: pH 2.7, pH 2,7, 0.1% formic acid in water / acetonitrile gradient
Description: Measurement of log P values was performed according EEC directive 79/831 Annex V.A8 by HPLC (High Performance Liquid Chromatography) on reversed phase columns with the following methods: ^[a] Measurement of LC-MS was done at pH 2,7 with 0.1% formic acid in water and with acetonitrile (contains 0.1% formic acid) as eluent with a linear gradient from 10% acetonitrile to 95% acetonitrile. Calibration was done with not branched alkan2-ones (with 3 to 16 carbon atoms) with known log P-values (measurement of log P values using retention times with linear interpolation between successive alkanones). lambda-maX-values were determined using UV-spectra from 200 nm to 400 nm and the peak values of the chromatographic signals.

Row | SMILES | Efficacy in % found ([1]; 50 ppm a.i.) | Efficacy in % found ([2]; 0.125 ppm a.i.) | Efficacy in % found ([2]; 0.25 ppm a.i.) | also measured
1 | CC1(C)CN=C(c2cnc3ccccc3c2)c2cccc(F)c2O1 [Compound B1-1, 9-fluoro-2,2-dimethyl-5-(quinolin-3-yl)-2,3-dihydro-1,4-benzoxazepine] | 25% | – | – | –
2 | Cc1nc2c(F)cccc2cc1Oc1cccc(F)c1C(C)(C)O [Compound B1-2, 2-{2-fluoro-6-[(8-fluoro-2-methylquinolin-3-yl)oxy]phenyl}propan-2-ol] | 0% | – | – | –
3 | Cc1nc2c(F)c(F)ccc2cc1Oc1cccc(F)c1C(C)(C)O [Compound B1-3, 2-{2-[(7,8-difluoro-2-methylquinolin-3-yl)oxy]-6-fluorophenyl}propan-2-ol] | 25% | – | – | –
4 | CC1(C)N=C(c2cnc3ccccc3c2)c2ccccc2C1(F)F [Compound B1-4] | – | 0% | 0% | Efficacy in % found ([1]; 60 ppm a.i.): 13%; Efficacy in % found ([2]; 0.5 ppm a.i.): 15%
5 | CON(C(=O)c1cn(C)nc1C(F)F)C(C)Cc1c(Cl)cc(Cl)cc1Cl (stereo not drawn) [Compound I-1, 3-(difluoromethyl)-N-methoxy-1-methyl-N-[1-(2,4,6-trichlorophenyl)propan-2-yl]-1H-pyrazole-4-carboxamide] | – | 73% | 85% | Efficacy in % found ([1]; 5 ppm a.i.): 50%; Efficacy in % found ([1]; 10 ppm a.i.): 63%
6 | CON(C(=O)c1c(C(F)F)nn(C)c1F)C(C)Cc1c(Cl)cc(Cl)cc1Cl (stereo not drawn) [Compound I-2, 3-(difluoromethyl)-5-fluoro-N-methoxy-1-methyl-N-[1-(2,4,6-trichlorophenyl)propan-2-yl]-1H-pyrazole-4-carboxamide] | – | – | – | chromatographic logP [3]: 4.29
